In PubChem BioAssay (NCI):
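Tested at 5 concentrations; 48 h exposure; 96-well plates; endpoints linearly interpolated, else capped at highest concentration. GI50 is the concentration that inhibits growth by half. TGI: concentration producing complete growth inhibition.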

Assays:
Test in all cases: growth of human tumour cells (NCI), 48 h
OVCAR-3 ovarian = tested on: OVCAR-3 ovarian
786-0 renal = tested on: 786-0 renal
SNB-19 CNS = tested on: SNB-19 CNS
UO-31 renal = tested on: UO-31 renal
CCRF-CEM leukemia = tested on: CCRF-CEM leukemia
OVCAR-8 ovarian = tested on: OVCAR-8 ovarian
MALME-3M melanoma = tested on: MALME-3M melanoma
NCI-H226 lung = tested on: NCI-H226 lung
OVCAR-5 ovarian = tested on: OVCAR-5 ovarian
NCI-H460 lung = tested on: NCI-H460 lung

| Structure (SMILES) | TGI (OVCAR-3 ovarian) [µM] | TGI (786-0 renal) [µM] | TGI (SNB-19 CNS) [µM] | TGI (UO-31 renal) [µM] | TGI (CCRF-CEM leukemia) [µM] | TGI (OVCAR-8 ovarian) [µM] | TGI (MALME-3M melanoma) [µM] | TGI (NCI-H226 lung) [µM] | TGI (OVCAR-5 ovarian) [µM] | TGI (NCI-H460 lung) [µM] | GI50 (OVCAR-3 ovarian) [µM] | GI50 (786-0 renal) [µM] | GI50 (SNB-19 CNS) [µM] | GI50 (UO-31 renal) [µM] | GI50 (CCRF-CEM leukemia) [µM] | GI50 (OVCAR-8 ovarian) [µM] | GI50 (NCI-H226 lung) [µM] | GI50 (OVCAR-5 ovarian) [µM] | GI50 (NCI-H460 lung) [µM] | GI50 (MALME-3M melanoma) [µM] |
| --- | --- | --- | --- | --- | --- | --- | --- | --- | --- | --- | --- | --- | --- | --- | --- | --- | --- | --- | --- | --- |
| Nn1c(N=Nc2c(O)[nH]c3c(Cl)cc(Cl)cc23)n[nH]c1=S | > 100 | > 100 | > 100 | > 100 | > 100 | > 100 | > 100 | > 100 | > 100 | > 100 | – | – | – | – | – | – | – | – | – | – |
| Cc1cccc(C(C)(C)C)c1NC(=O)CC1Sc2ccccc2NC1=O (configuration not stated) | > 100 | > 100 | > 100 | > 100 | > 100 | > 100 | > 100 | > 100 | > 100 | > 100 | – | – | – | – | – | – | – | – | – | – |
| NC(=O)c1cccc([C@@H]2O[C@H](CO)[C@@H](O)[C@H]2O)c1 | 67.2 | 12.3 | 34.3 | 15.7 | 15.4 | 9.55 | > 100 | 75.7 | > 100 | > 100 | – | – | – | – | – | – | – | – | – | – |
| O=[N+]([O-])c1cccc(C2=NOC3C4CCC(C4)C23)c1 (configuration not stated) | > 100 | > 100 | – | > 100 | – | > 100 | > 100 | > 100 | > 100 | > 100 | – | – | – | – | – | – | – | – | – | – |
| O=C1OC(OCC#CCOC2OC(=O)C(Cl)=C2Cl)C(Cl)=C1Cl (configuration not stated) | 30.7 | 16.8 | 42.5 | 24 | 4.63 | 20.8 | – | – | 33.2 | 58.9 | – | – | – | – | – | – | – | – | – | – |
| ClCc1ccc(Cn2cnc3c(Cl)nc(Cl)nc32)cc1 | 4.33 | 29.5 | 7.04 | 35.5 | 4.53 | 38.3 | – | 9.63 | 34.5 | 4.92 | 1.99 | 14 | 2.5 | 19.3 | 1.94 | 20 | 3.55 | 18.2 | 2.39 | – |
| Clc1nc(Cl)c2ncn(Cc3ccc(Cn4cnc5c(Cl)nc(Cl)nc54)cc3)c2n1 | 25.6 | 11.2 | > 100 | 20.1 | 1.84 | 25 | 29.3 | 51.6 | 10.9 | 22.2 | 8.68 | 1.6 | 76.2 | 5.01 | – | 10.4 | 11.2 | 2.03 | 4.75 | 5.62 |
| Cc1cc(OCc2nnc3n2N=C(c2ccc(Cl)cc2Cl)CS3)ccc1Cl | > 100 | > 100 | > 100 | > 100 | > 100 | > 100 | > 100 | > 100 | > 100 | > 100 | 35.9 | > 100 | 97.2 | 34 | 42.2 | 45 | 43.6 | > 100 | 62.8 | 68.9 |
| CN1C(Cl)=NS(=O)(=O)c2ccccc21 | > 100 | > 100 | > 100 | > 100 | > 100 | > 100 | – | > 100 | > 100 | > 100 | – | – | – | – | – | – | – | – | – | – |
| COc1ccc2nc(NC(=O)C(=O)C(C#N)c3ccc(Cl)c(Cl)c3)sc2c1 (configuration not stated) | > 100 | > 100 | > 100 | > 100 | > 100 | > 100 | > 100 | > 100 | > 100 | > 100 | – | – | – | – | – | – | – | – | – | – |
| Cc1cccc2nc3cccc(C(=O)NCCN(C)C)c3nc12 | 6.45 | 14.6 | 5.27 | 1.56 | > 100 | 15.8 | – | 4.17 | 5.97 | 16.5 | – | – | – | – | – | – | – | – | – | – |
| COC(=O)C1=C(c2ccc3c(c2)OCO3)OC(c2cc(OC)c(OC)c(OC)c2)C1 (configuration not stated) | 4.26 | > 100 | > 100 | > 100 | > 100 | 92.4 | > 100 | > 100 | > 100 | > 100 | – | – | – | – | – | – | – | – | – | – |
| CCOC(=O)C1=C(Nc2ccc(Cl)c(Cl)c2)OC/C1=N\NS(=O)(=O)c1ccc(C)cc1 | > 100 | > 100 | > 100 | 85.6 | > 100 | > 100 | > 100 | > 100 | > 100 | > 100 | – | – | – | – | – | – | – | – | – | – |
| Cc1cc(N(CCC#N)CCC#N)ccc1C=Nc1ccc(C(=O)NN2C(=O)/C(=C/c3ccc(N(CCC#N)CCC#N)cc3)N=C2c2cc([N+](=O)[O-])ccc2Cl)cc1 | > 100 | > 100 | > 100 | > 100 | > 100 | > 100 | > 100 | > 100 | > 100 | > 100 | – | – | – | – | – | – | – | – | – | – |
| Cc1nc(Nc2nc3ccccc3o2)nc(-c2cccc([N+](=O)[O-])c2)c1C(=O)Nc1ccc(F)c(Cl)c1 | 13.8 | > 100 | > 100 | 7.09 | 24.2 | > 100 | 5.79 | > 100 | > 100 | 17.7 | 1.02 | 3.18 | 2.32 | 1.87 | 2.34 | 2.44 | 3.05 | 3.8 | 1.43 | 1.92 |
| O=C(CC1C(=O)Nc2ccccc2S1=O)Nc1ccc(Cl)cc1 (configuration not stated) | > 100 | > 100 | > 100 | > 100 | – | > 100 | > 100 | > 100 | > 100 | > 100 | – | – | – | – | – | – | – | – | – | – |
| NCCSCCc1ccccc1 | > 100 | > 100 | > 100 | > 100 | – | > 100 | > 100 | > 100 | > 100 | > 100 | – | – | – | – | – | – | – | – | – | – |
| COc1ccc(Nc2cc(C)nc(N3CCN(c4ccnc5cc(Cl)ccc45)CC3)n2)cc1 | 6.15 | > 100 | > 100 | > 100 | > 100 | > 100 | > 100 | > 100 | – | > 100 | 2.31 | 2.61 | 4.83 | 2.24 | 2.85 | 3.25 | 4.7 | – | 1.92 | 3.17 |
